Results from patent US20250066320A1, “Active Ingredients with Sialagogue and Tingling/Fizzy Effect, and Preparations Containing Same” (Symrise AG, priority 2021, published 2025).

Test: Sensory tasting of the active ingredients (mouth-watering and/or tingling effect) by a trained expert panel
Format: in vivo, human
Details: for Sensory Rating (profile in words): 3 to 7 tasters; for Sensory Rating: intensity of mouth-watering and/or tingling/fizzing effect (figure in brackets): 50 ppm, scale of 1 (very weak) to 10 (very strong)
Description: The sensory tasting of the active ingredients according to the invention was carried out as follows: • (1) The active ingredients were each prepared in a 5% sugar solution or in an unflavored standard fondant mass. Fondant is the name for a soft, pasty sugar mass that is used to make various confectionery products. Fondant is made from water and sucrose as well as glucose syrup, invert sugar cream and/or sugar alcohols (e.g., sorbitol or mannitol). The mixture is boiled and then processed into a soft paste by kneading it vigorously and cooling it quickly. • (2) The concentration of the active ingredients was 25 or 50 ppm. • (3) The test samples were tested under practical conditions by a panel of experts with sensory training. For tasting, 3 to 7 tasters each rinsed their mouths with approx. 5 ml of the sugar solution and spat the solution out again. The mouth-watering and/or tingling effect was assessed on a scale of 1 (very weak) to 10 (very strong) and the profile evaluated.

[1] = 25 ppm in 5% sugar solution or unflavored fondant mass
[2] = 50 ppm in 5% sugar solution or unflavored fondant mass

Row | Compound | Sensory Rating (profile in words) [1] | Sensory Rating (profile in words) [2] | Sensory Rating: intensity of mouth-watering and/or tingling/fizzing effect (figure in brackets)
1 | COc1ccc(C(=O)N2CCN(C/C=C/c3ccccc3)CC2)cc1O [Compound 9, [4-[(E)-cinnamyl]piperazin-1-yl]-(3-hydroxy-4-methoxy-phenyl)methanone] | sweet, after melon |  | 
2 | CCOc1ccc(C(=O)N2CCCN(CCc3ccccc3)CC2)cc1 [Compound 47, (4-ethoxyphenyl)-[4-(2-phenylethyl)-1,4-diazepan-1-yl]methanone] |  | Strong mouth-watering and tingling/fizzing effect (6), Pleasant taste | Strong mouth-watering and tingling/fizzing effect (6), Pleasant taste
3 | CCOc1ccc(C(=O)N2CCN(CCCCc3ccccc3)CC2)cc1 [Compound 41, (4-ethoxyphenyl)-[4-(4-phenyl-butyl)piperazin-1-yl]methanone] | metallic, mouth- watering effect | strong mouth- watering effect (8), long-lasting, Slightly hot | 8
4 | COc1ccc(C(=O)N2CCN(CCCCc3ccccc3)CC2)cc1OC [Compound 27, (3,4-Dimethoxy-phenyl)-[4-(4-phenyl-butyl)piperazin-1-yl]methanone] |  | slightly tingling/ fizzing (4-5), and mouth-watering, metallic after- taste, weakly burning | slightly tingling/ fizzing (4-5), and mouth-watering, metallic after- taste, weakly burning
5 | COc1ccc(C(=O)N2CCN(CCC3CCCCC3)CC2)cc1 [Compound 36, [4-(2-cyclo-hexylethyl)piperazin-1-yl]-(4-methoxy-phenyl) methanone] |  | slightly tingling/fizzing (3), metallic taste | slightly tingling/fizzing (3), metallic taste
6 | CCOc1ccc(C(=O)N2CCN(CCCc3ccccc3)CC2)cc1OCC [Compound 7, (3,4-Diethoxy-phenyl)-[4-(3-phenyl-propyl)piperazin-1-yl]methanone] | tingling/ fizzing, mouth-watering, slightly cooling |  | 
7 | CCOc1ccc(C(=O)N2CCN(CCC3CCCCC3)CC2)cc1 [Compound 44, [4-(2-cyclo-hexylethyl)piperazin-1-yl]-(4-ethoxy-phenyl)methanone] |  | slightly tingling/fizzing (4), and mouth-watering | slightly tingling/fizzing (4), and mouth-watering
8 | CCOc1ccc(C(=O)N2CCCN(CCc3ccccc3)CC2)cc1OCC [Compound 26, (3,4-Diethoxy-phenyl)-[4-(2-phenyl-ethyl)-1,4-diazepan-1-yl]methanone] |  | Very slightly tingling/fizzing (1-2), and mouth-watering (weak) | Very slightly tingling/fizzing (1-2), and mouth-watering (weak)
9 | CC(C)Oc1ccc(C(=O)N2CCN(C/C=C/c3ccccc3)CC2)cc1OC(C)C [Compound 10, [4-[(E)-cinnamyl]piperazin-1-yl]-(3,4-diisopropoxy-phenyl)methanone] | astringent, bitter |  | 
10 | CCOc1ccc(C(=O)N2CCN(CCCCc3ccccc3)CC2)cc1OCC [Compound 11, (3,4-Diethoxy-phenyl)-[4-(4-phenyl-butyl)piperazin-1-yl]methanone] | tingling/ fizzing, like melon, astringent, mouth-watering |  | 
11 | O=C(c1ccccc1)N1CCN(CCCCc2ccccc2)CC1 [Compound 16, Phenyl-[4-(4-phenylbutyl)piperazin-1-yl]methanone] | slightly tingling/ fizzing | metallic taste, mouth-watering and tingling/ fizzing effect | 2-3
12 | CCOc1ccc(C(=O)N2CCC(CCCc3ccccc3)CC2)cc1OCC [Compound 25, (3,4-Diethoxy-phenyl)-[4-(3-phenyl-propyl)-1-piperidyl]-methanone] |  | Very slightly tingling/fizzing (2-3), sharp, astringent | Very slightly tingling/fizzing (2-3), sharp, astringent
13 | COc1ccc(C(=O)N2CCN(CCc3ccccc3)CC2)cc1 [Compound 35, (4-Methoxy-phenyl)-[4-(2-phenyl-ethyl)piperazin-1-yl]methanone] | slightly mouth-watering | slightly tingling/ fizzing (3) and mouth-watering, Acid taste, Honey note | 3
14 | CCCOc1ccc(C(=O)N2CCN(C/C=C/c3ccccc3)CC2)cc1OCCC [Compound 6, [4-[(E)-cinnamyl]piperazin-1-yl]-(3,4-dipropoxy-phenyl)methanone] | bitter, light astringent |  | 
15 | CCOc1ccc(C(=O)N2CCN(CCOc3ccccc3)CC2)cc1OCC [Compound 13, (3,4-Diethoxy-phenyl)-[4-(2-phenoxyethyl)piperazin-1-yl] methanone] | strong tingling/ fizzing, mouth-watering, |  | 
16 | CCOc1ccc(C(=O)N2CCN(Cc3ccncc3)CC2)cc1OCC [Compound 14, (3,4-Diethoxy-phenyl)-[4-(4-pyridyl-methyl)piperazin-1-yl]methanone] | slightly tingling/ fizzing, mouth-watering, burning, |  | 
17 | COc1cc(C(=O)N2CCN(C/C=C/c3ccccc3)CC2)cc(OC)c1OC [Compound 5, [4-[(E)-cinnamyl]piperazin-1-yl]-(3,4,5-trimethoxy-phenyl)methanone] | chocolaty, dusty, after cress |  | 
18 | COc1ccc(C(=O)N2CCN(CCCCc3ccccc3)CC2)cc1 [Compound 34, (4-Methoxy-phenyl)-[4-(4-phenyl-butyl)piperazin-1-yl]methanone] | tingling/ fizzing and mouth-watering effect, neutral taste | strongly mouth-watering/ tingling/fizzing | 6
19 | COc1cc(C(=O)N2CCN(C/C=C/c3ccccc3)CC2)ccc1O [Compound 4, [4-[(E)-cinnamyl]piperazin-1-yl]-(4-hydroxy-3-methoxy-phenyl)methanone] |  | balsamic | 
20 | COc1ccc(C(=O)N2CCN(CCCc3ccccc3)CC2)cc1OC [Compound 31, (3,4-Dimethoxy-phenyl)-[4-(3-phenyl-propyl)piperazin-1-yl]methanone] |  | tingling/ fizzing (5-6), and mouth-watering, fruity note, Honey flavor | tingling/ fizzing (5-6), and mouth-watering, fruity note, Honey flavor
21 | COc1ccc(C(=O)N2CCN(C/C=C/c3ccccc3)CC2)cc1OC [Compound 3, [4-[(E)-cinnamyl]piperazin-1-yl]-(3,4-dimethoxy-phenyl)methanone] |  | tingling/ fizzing | 
22 | CCOc1ccc(C(=O)N2CCN(Cc3ccccc3)CC2)cc1OCC [Compound 8, (4-benzylpiperazin-1-yl)-(3,4-diethoxy-phenyl)methanone] | slightly tingling/ fizzing, slightly mouth-watering, slightly cooling |  | 
